Test results: the NIST ThermoML archive (doi:10.1016/j.jct.2013.08.016)

What was measured:
[1] = mn = molality of the nth substance listed, in mol/kg; settings: 101.3 kPa, Liquid; for viscosity: Capillary tube (Ostwald / Ubbelohde) method; for mass density: Pycnometric method; for speed of sound: Single path-length method
[2] = refractive index (Na D-line) (dimensionless); mn = molality of the nth substance listed, in mol/kg; settings: 101.3 kPa, Liquid, Standard Abbe refractometry

O=C1O[C@H]([C@@H](O)CO)C(O)=C1O [L-ascorbic acid] + O
Settings | mass density, [1] [kg/m3] | refractive index, [2] | speed of sound, [1] [m/s] | viscosity, [1] [mPa·s]
278.15 K, m1 = 0.0502 | 1003.69 | 1.3353 | 1429.5 | 1.566
278.15 K, m1 = 0.0997 | 1007.29 | 1.3365 | 1432.8 | 1.606
278.15 K, m1 = 0.1384 | 1010.1 | 1.3378 | 1434.7 | 1.634
278.15 K, m1 = 0.1964 | 1014.25 | 1.3394 | 1438.5 | 1.668
278.15 K, m1 = 0.2338 | 1016.85 | 1.3405 | 1440.5 | 1.699
278.15 K, m1 = 0.2927 | 1020.96 | 1.3419 | 1443.6 | 1.737
278.15 K, m1 = 0.3392 | 1024.27 | 1.3434 | 1445.3 | 1.77
278.15 K, m1 = 0.4069 | 1028.56 | 1.3448 | 1448.9 | 1.813
278.15 K, m1 = 0.4383 | 1030.63 | 1.3459 | 1451.3 | 1.842
278.15 K, m1 = 0.4932 | 1034.36 | 1.3472 | 1454.6 | 1.874
278.15 K, m1 = 0.5541 | 1038.24 | 1.3489 | 1458.2 | 1.921
278.15 K, m1 = 0.6251 | 1042.79 | 1.351 | 1463.2 | 1.974
278.15 K, m1 = 0.711 | 1048.36 | 1.3533 | 1467.3 | 2.033
278.15 K, m1 = 0.7457 | 1050.45 | 1.3544 | 1469.1 | 2.05
288.15 K, m1 = 0.0496 | 1002.68 | 1.3348 | 1468.6 | 1.165
288.15 K, m1 = 0.1009 | 1006.33 | 1.3364 | 1471.2 | 1.184
288.15 K, m1 = 0.1408 | 1009.14 | 1.3378 | 1473.2 | 1.205
288.15 K, m1 = 0.1952 | 1012.94 | 1.339 | 1476.3 | 1.236
288.15 K, m1 = 0.2426 | 1016.2 | 1.34 | 1479 | 1.257
288.15 K, m1 = 0.2997 | 1020.14 | 1.3417 | 1481.7 | 1.282
288.15 K, m1 = 0.3402 | 1022.83 | 1.3428 | 1483.8 | 1.288
288.15 K, m1 = 0.3936 | 1026.48 | 1.3441 | 1487.6 | 1.325
288.15 K, m1 = 0.4492 | 1030.03 | 1.3456 | 1489.1 | 1.353
288.15 K, m1 = 0.5096 | 1034.09 | 1.3471 | 1492.7 | 1.386
288.15 K, m1 = 0.5782 | 1038.38 | 1.3489 | 1496.4 | 1.424
288.15 K, m1 = 0.6302 | 1041.56 | 1.3499 | 1499.1 | 1.444
288.15 K, m1 = 0.6984 | 1046.01 | 1.352 | 1501.6 | 1.475
288.15 K, m1 = 0.7426 | 1048.42 | 1.3529 | 1503.6 | 1.494
298.15 K, m1 = 0.0502 | 1000.6 | 1.3339 | 1498.9 | 0.9072
298.15 K, m1 = 0.1017 | 1004.18 | 1.3354 | 1501.5 | 0.9235
298.15 K, m1 = 0.1409 | 1006.8 | 1.3365 | 1503.4 | 0.935
298.15 K, m1 = 0.1988 | 1010.73 | 1.338 | 1505.2 | 0.9544
298.15 K, m1 = 0.2402 | 1013.54 | 1.3391 | 1506.7 | 0.9688
298.15 K, m1 = 0.2987 | 1017.33 | 1.3407 | 1508.9 | 0.9928
298.15 K, m1 = 0.3421 | 1020.12 | 1.3418 | 1510.9 | 1.007
298.15 K, m1 = 0.4046 | 1024.34 | 1.3431 | 1514.2 | 1.028
298.15 K, m1 = 0.4536 | 1027.31 | 1.3443 | 1518.2 | 1.046
298.15 K, m1 = 0.5119 | 1030.98 | 1.3461 | 1520 | 1.068
298.15 K, m1 = 0.5788 | 1035.16 | 1.3478 | 1521.8 | 1.093
298.15 K, m1 = 0.6259 | 1038.06 | 1.3497 | 1523.6 | 1.111
298.15 K, m1 = 0.6974 | 1042.37 | 1.3508 | 1525.5 | 1.141
298.15 K, m1 = 0.7486 | 1045.37 | 1.3518 | 1527.3 | 1.164

O=C1O[C@H]([C@@H](O)CO)C([O-])=C1O.[Na+] [sodium L-ascorbate] + O
Settings | mass density, [1] [kg/m3] | refractive index, [2] | speed of sound, [1] [m/s] | viscosity, [1] [mPa·s]
278.15 K, m1 = 0.0495 | 1005.25 | 1.3359 | 1432.4 | 1.564
278.15 K, m1 = 0.102 | 1010.89 | 1.338 | 1438.9 | 1.61
278.15 K, m1 = 0.1378 | 1014.72 | 1.3388 | 1443.6 | 1.633
278.15 K, m1 = 0.2009 | 1021.3 | 1.3411 | 1451.6 | 1.693
278.15 K, m1 = 0.2329 | 1024.63 | 1.3428 | 1456.6 | 1.727
278.15 K, m1 = 0.2951 | 1030.95 | 1.3448 | 1463.8 | 1.787
278.15 K, m1 = 0.3361 | 1035.04 | 1.3461 | 1469.1 | 1.828
278.15 K, m1 = 0.3968 | 1041.02 | 1.3485 | 1478.2 | 1.891
278.15 K, m1 = 0.4287 | 1044.29 | 1.3498 | 1480 | 1.925
278.15 K, m1 = 0.4929 | 1050.46 | 1.3519 | 1489.1 | 1.995
278.15 K, m1 = 0.5436 | 1055.28 | 1.3536 | 1494.6 | 2.052
278.15 K, m1 = 0.6275 | 1063.15 | 1.3564 | 1503.6 | 2.152
278.15 K, m1 = 0.6583 | 1065.96 | 1.3571 | 1509.1 | 2.192
278.15 K, m1 = 0.7407 | 1073.42 | 1.3602 | 1518.2 | 2.291
288.15 K, m1 = 0.0403 | 1003.38 | 1.3351 | 1470.4 | 1.167
288.15 K, m1 = 0.1263 | 1012.42 | 1.3373 | 1479.2 | 1.209
288.15 K, m1 = 0.1604 | 1015.94 | 1.3392 | 1483.6 | 1.24
288.15 K, m1 = 0.2478 | 1024.69 | 1.3423 | 1494.4 | 1.303
288.15 K, m1 = 0.301 | 1029.91 | 1.3439 | 1499.1 | 1.339
288.15 K, m1 = 0.3509 | 1034.82 | 1.346 | 1505.9 | 1.37
288.15 K, m1 = 0.4457 | 1043.86 | 1.3493 | 1518.2 | 1.45
288.15 K, m1 = 0.5156 | 1050.33 | 1.3502 | 1525.5 | 1.504
288.15 K, m1 = 0.5987 | 1057.95 | 1.3543 | 1532.7 | 1.575
288.15 K, m1 = 0.6446 | 1062.31 | 1.3558 | 1540 | 1.608
288.15 K, m1 = 0.6909 | 1066.4 | 1.3572 | 1545.5 | 1.652
288.15 K, m1 = 0.7466 | 1071.4 | 1.3592 | 1552 | 1.708
298.15 K, m1 = 0.0503 | 1002.31 | 1.3344 | 1501.9 | 0.9169
298.15 K, m1 = 0.1005 | 1007.49 | 1.3362 | 1507.2 | 0.9381
298.15 K, m1 = 0.1492 | 1012.47 | 1.3378 | 1512.6 | 0.9628
298.15 K, m1 = 0.1993 | 1017.5 | 1.3397 | 1518.1 | 0.9898
298.15 K, m1 = 0.2452 | 1022.1 | 1.3414 | 1522.5 | 1.007
298.15 K, m1 = 0.301 | 1027.58 | 1.3434 | 1527.6 | 1.04
298.15 K, m1 = 0.3456 | 1031.8 | 1.3449 | 1533.1 | 1.062
298.15 K, m1 = 0.4112 | 1038.01 | 1.347 | 1539.9 | 1.097
298.15 K, m1 = 0.4397 | 1040.84 | 1.3479 | 1542 | 1.113
298.15 K, m1 = 0.4892 | 1045.65 | 1.3495 | 1547.2 | 1.146
298.15 K, m1 = 0.5491 | 1051.09 | 1.3516 | 1554.4 | 1.183
298.15 K, m1 = 0.6035 | 1056.1 | 1.3534 | 1559.1 | 1.223
298.15 K, m1 = 0.6697 | 1062.08 | 1.3553 | 1565.3 | 1.257
298.15 K, m1 = 0.7314 | 1067.47 | 1.3571 | 1572.6 | 1.301
